From patent publication US6984649B1, “Pyridine derivatives” (Bayer Aktiengesellschaft, priority 2000, dated 2006) come the findings set out here.

The assay has as its system A549 human lung epithelium cell line. In words: RANTES production in response to TNF-α from A549 cells. It is filed as cell-based. The conditions noted are these: Homo sapiens, A549, A549 cells, 100 ng/ml TNF-α, read-out: Cellular activity grade (A549) (Cellular IC50). Put shortly: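 RANTES released into supernatant was measured by DELFIA-type sandwich immunoassay, Eu-labelled detection antibody, 340 nm excitation/615 nm emission, recombinant RANTES standard. Beforehand, cells seeded at 4×10^4/well received test compound (1% DMSO) for 1 h at 37 °C, followed by 24 h TNF-α (100 ng/ml) stimulation.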
For the compound `CC(=O)NCCNc1cc(-c2c(O)cccc2OCC2CC2)nc(N)c1C#N` [Example 34-19], the IC50 – broadly, the midpoint of a concentration-inhibition curve – is less than 1 µM.

As for `CCCOc1cccc(O)c1-c1cc(C2CCCNC2)c2c(n1)NC(=O)CC2` (centres unmarked) [Example 27-02], the IC50 is less than 1 µM. On to `O=C(c1cc2c(C3CCCNC3)cc(-c3c(O)cccc3OCC3CC3)nc2[nH]c1=O)N1CCNCC1` (centres unmarked) [Example 31-09], for which the 50% inhibitory concentration (IC50) was greater than 10 µM. In the case of `C[C@H](NC(=O)c1cc2c(C3CCCNC3)cc(-c3c(O)cccc3OCC3CC3)nc2[nH]c1=O)C(=O)O` (some centres unmarked) [Example 31-16], the IC50 lay in the range of 1 to 10 µM.

Turning to `O=C1CCc2c(C3CCNCC3)cc(-c3c(O)cccc3OCC3CC3)nc2N1` [Example 27-04], the IC50 was less than 1 µM. Then `CCCC(CCC)NC(=O)c1cc2c(C3CCCNC3)cc(-c3c(O)cccc3OCC3CC3)nc2[nH]c1=O` (centres unmarked) [Example 31-26], with less than 1 µM; and `CN(C)CCNC(=O)c1cc2c(C3CCCNC3)cc(-c3c(O)cccc3OCC3CC3)nc2[nH]c1=O` (centres unmarked) [Example 31-11], with less than 1 µM; and `O=C(NC1CCCCCC1)c1cc2c(C3CCCNC3)cc(-c3c(O)cccc3OCC3CC3)nc2[nH]c1=O` (centres unmarked) [Example 31-24], with less than 1 µM. As to `O=C(c1cc2c(C3CCCNC3)cc(-c3c(O)cccc3OCC3CC3)nc2[nH]c1=O)N1CCCC1` (centres unmarked) [Example 31-05], the IC50 was in the range of 1 to 10 µM. On to `O=C(NCC1CCCCC1)c1cc2c(C3CCCNC3)cc(-c3c(O)cccc3OCC3CC3)nc2[nH]c1=O` (centres unmarked) [Example 31-19], for which the concentration for half-maximal inhibition (IC50) is greater than 10 µM. Then `O=C(c1cc2c(C3CCCNC3)cc(-c3c(O)cccc3OCC3CC3)nc2[nH]c1=O)N1CCOCC1` (centres unmarked) [Example 31-08], with 1 to 10 µM; and `C[C@H](NC(=O)c1cc2c(C3CCCNC3)cc(-c3c(O)cccc3OCC3CC3)nc2[nH]c1=O)c1ccccc1` (some centres unmarked) [Example 31-14], with less than 1 µM. With `CCC(CC)NC(=O)c1cc2c(C3CCCNC3)cc(-c3c(O)cccc3OCC3CC3)nc2[nH]c1=O` (centres unmarked) [Example 31-25] the figure was less than 1 µM; with `O=c1[nH]c2nc(-c3c(O)cccc3OCC3CC3)cc(C3CCCNC3)c2cc1[N+](=O)[O-]` (centres unmarked) [Example 25-05], 1 to 10 µM; with `O=C(NCC(F)(F)F)c1cc2c(C3CCCNC3)cc(-c3c(O)cccc3OCC3CC3)nc2[nH]c1=O` (centres unmarked) [Example 31-27], less than 1 µM. Regarding `O=C(NCc1ccccc1)c1cc2c(C3CCCNC3)cc(-c3c(O)cccc3OCC3CC3)nc2[nH]c1=O` (centres unmarked) [Example 31-06], the IC50 was less than 1 µM. With `COCCNC(=O)c1cc2c(C3CCCNC3)cc(-c3c(O)cccc3OCC3CC3)nc2[nH]c1=O` (centres unmarked) [Example 31-07] the figure was less than 1 µM; with `N#Cc1c(NCCNCc2ccccc2)cc(-c2ccccc2O)nc1N` [Example 34-13], less than 1 µM; with `O=C(NCCO)c1cc2c(C3CCCNC3)cc(-c3c(O)cccc3OCC3CC3)nc2[nH]c1=O` (centres unmarked) [Example 31-20], 1 to 10 µM. With `CCOC(=O)C1Cc2c(C3CCCNC3)cc(-c3c(O)cccc3OCC3CC3)nc2NC1=O` (centres unmarked) [Example 26-03] the figure was less than 1 µM. For `CNCCNc1cc(-c2ccccc2O)nc(N)c1C#N` [Example 34-12], the half-maximal inhibitory concentration (IC50) was less than 1 µM. On to `CCCOc1cccc(O)c1-c1cc(C2CCNCC2)c2c(n1)NC(=O)CC2` [Example 27-05], for which the IC50 was less than 1 µM. For the compound `N#Cc1c(N2CCNCC2)cc(-c2ccccc2O)nc1N` [Example 34-09], the 50% inhibitory concentration (IC50) is 1 to 10 µM. Turning to `CC(C)NC(=O)c1cc2c(C3CCCNC3)cc(-c3c(O)cccc3OCC3CC3)nc2[nH]c1=O` (centres unmarked) [Example 31-10], the IC50 is less than 1 µM. `CNC(=O)c1cc2c(C3CCCNC3)cc(-c3c(O)cccc3OCC3CC3)nc2[nH]c1=O` (centres unmarked) [Example 31-03]: the IC50 was less than 1 µM. On to `N#Cc1c(NCCN)cc(-c2ccccc2O)nc1N` [Example 34-10], for which the IC50 was less than 1 µM.

For the compound `O=c1[nH]c2nc(-c3c(O)cccc3OCC3CC3)cc(C3CCCNC3)c2cc1S(=O)(=O)c1ccccc1` (centres unmarked) [Example 25-07], the IC50 was less than 1 µM. As for `NC(=O)C1Cc2c(C3CCCNC3)cc(-c3c(O)cccc3OCC3CC3)nc2NC1=O` (centres unmarked) [Example 26-05], the IC50 was less than 1 µM. For `CCOC(=O)C1Cc2c(C3CCNCC3)cc(-c3c(O)cccc3OCC3CC3)nc2NC1=O` (centres unmarked) [Example 26-04], the half-inhibitory concentration (IC50) is less than 1 µM. Consider `O=C(NC1CCCCC1)c1cc2c(C3CCCNC3)cc(-c3c(O)cccc3OCC3CC3)nc2[nH]c1=O` (centres unmarked) [Example 31-18], for which the 50% inhibitory concentration (IC50) is less than 1 µM.

`N#Cc1c(NCCNC(=O)c2ccccc2)cc(-c2c(O)cccc2OCC2CC2)nc1N` [Example 34-16]: the IC50 is less than 1 µM. With `C[C@@H](NC(=O)c1cc2c(C3CCCNC3)cc(-c3c(O)cccc3OCC3CC3)nc2[nH]c1=O)c1ccccc1` (some centres unmarked) [Example 31-15] the figure was less than 1 µM.

As for `O=C(NC1CC1)c1cc2c(C3CCCNC3)cc(-c3c(O)cccc3OCC3CC3)nc2[nH]c1=O` (centres unmarked) [Example 31-21], the concentration for half-maximal inhibition (IC50) is less than 1 µM. `O=C(NC1CCCC1)c1cc2c(C3CCCNC3)cc(-c3c(O)cccc3OCC3CC3)nc2[nH]c1=O` (centres unmarked) [Example 31-23]: the concentration for half-maximal inhibition (IC50) was less than 1 µM. Take `NC(=O)c1cc2c(C3CCCNC3)cc(-c3c(O)cccc3OCC3CC3)nc2[nH]c1=O` (centres unmarked) [Example 25-08]: the IC50 is less than 1 µM. `N#Cc1c(NCCNS(=O)(=O)c2ccccc2)cc(-c2c(O)cccc2OCC2CC2)nc1N` [Example 34-17]: the half-maximal inhibitory concentration (IC50) was greater than 10 µM. With `N#Cc1c(N2CCCNCC2)cc(-c2ccccc2O)nc1N` [Example 34-08] the figure was 1 to 10 µM. Regarding `O=C(NCCc1ccccc1)c1cc2c(C3CCCNC3)cc(-c3c(O)cccc3OCC3CC3)nc2[nH]c1=O` (centres unmarked) [Example 31-17], the IC50 was 1 to 10 µM. Take `O=C(NC1Cc2ccccc2C1)c1cc2c(C3CCCNC3)cc(-c3c(O)cccc3OCC3CC3)nc2[nH]c1=O` (centres unmarked) [Example 31-12]: the half-inhibitory concentration (IC50) was less than 1 µM. As to `O=C(NC1CCC1)c1cc2c(C3CCCNC3)cc(-c3c(O)cccc3OCC3CC3)nc2[nH]c1=O` (centres unmarked) [Example 31-22], the IC50 is less than 1 µM. With `CCCOc1cccc(O)c1-c1cc(C2CCCNC2)c2c(n1)NC(=O)C(C(=O)OCC)C2` (centres unmarked) [Example 26-06] the figure was less than 1 µM; with `CN(C)C(=O)c1cc2c(C3CCCNC3)cc(-c3c(O)cccc3OCC3CC3)nc2[nH]c1=O` (centres unmarked) [Example 31-04], 1 to 10 µM; with `N#Cc1c(NC2CCNCC2)cc(-c2ccccc2O)nc1N` [Example 34-07], 1 to 10 µM. With `N#Cc1c(NCCNCc2ccccc2)cc(-c2c(O)cccc2OCC2CC2)nc1N` [Example 34-15], the IC50 was less than 1 µM. Turning to `O=C(NC(c1ccccc1)c1ccccc1)c1cc2c(C3CCCNC3)cc(-c3c(O)cccc3OCC3CC3)nc2[nH]c1=O` (centres unmarked) [Example 31-13], the IC50 was less than 1 µM. Then `N#Cc1cc2c(C3CCCNC3)cc(-c3c(O)cccc3OCC3CC3)nc2[nH]c1=O` (centres unmarked) [Example 25-06], with less than 1 µM.

For `N#Cc1c(NCCNC(=O)Nc2ccccc2)cc(-c2c(O)cccc2OCC2CC2)nc1N` [Example 34-18], the IC50 is less than 1 µM. For the compound `N#Cc1c(N2CCCC(C(N)=O)C2)cc(-c2ccccc2O)nc1N` (centres unmarked) [Example 34-06], the IC50 is greater than 10 µM.

In the case of `N#Cc1c(NCCCN)cc(-c2ccccc2O)nc1N` [Example 34-11], the 50% inhibitory concentration (IC50) is 1 to 10 µM. As to `O=C1CCc2c(C3CCCNC3)cc(-c3c(O)cccc3OCC3CC3)nc2N1` (centres unmarked) [Example 27-03, 7-[2-(cyclopropylmethoxy)-6-hydroxyphenyl]-5-(3-piperidinyl)-3,4-dihydro-1,8-naphthyridin-2(1H)-one], the IC50 is less than 1 µM.
